Assay results: publication PMC6858373 (Scientific Reports, 2019)
Where two headings read alike, the source gives them in different places.

Key:
[1] = molecular target: T1, FGF14:Nav1.6 C-tail complex (Homo sapiens, UniProt Q92915+Q9UQD0); assay: Split-luciferase complementation assay (LCA) in Clone V double stable HEK293 cells; format: cell-based; conditions: for Split Luciferase Assay % Lum Set 1 / Split Luciferase Assay %Lum Set 2: normalized to on-plate 0.3% DMSO controls (n=16 per plate); for Split Luciferase Assay %Lum Avg: average of Set 1 and Set 2, normalized to 0.3% DMSO controls
T1 construct: polymerase chain reaction (PCR) amplification of the FGF14 open reading frame (nt 1–855); C-terminal fragment of Nav1.6 (amino acids 1763–1976) fused with CD4ΔC-tail (amino acids 1–395); expressed in transfected cells

[2] = molecular target: full-length P. pyralis luciferase (Photinus pyralis, UniProt P08659, K549A/L550V/N119G/N50D/S548I); format: cell-based
[3] = CC_NCI screening, LCA luminescence, biological replicate Set 1
[4] = CC_NCI screening, LCA luminescence, biological replicate Set 2
[5] = CC_NCI screening, LCA, biological replicate Set 1, normalized to on-plate 0.3% DMSO controls
[6] = CC_NCI screening, LCA, biological replicate Set 2, normalized to on-plate 0.3% DMSO controls
[7] = CC_NCI screening, full-length luciferase counter-screen luminescence, normalized to on-plate 0.3% DMSO controls
[8] = CC_NCI screening, full-length luciferase counter-screen, normalized to on-plate 0.3% DMSO controls
[9] = CC_NCI screening, biological replicate Set 1, normalized to on-plate 0.3% DMSO controls
[10] = CC_NCI screening, biological replicate Set 1
[11] = CC_NCI screening, biological replicate Set 2, normalized to on-plate 0.3% DMSO controls
[12] = CC_NCI screening, biological replicate Set 2
[13] = CC_NCI screening, normalized to on-plate 0.3% DMSO controls

T1 sequence (Q92915 1-252 isoform Q92915-2): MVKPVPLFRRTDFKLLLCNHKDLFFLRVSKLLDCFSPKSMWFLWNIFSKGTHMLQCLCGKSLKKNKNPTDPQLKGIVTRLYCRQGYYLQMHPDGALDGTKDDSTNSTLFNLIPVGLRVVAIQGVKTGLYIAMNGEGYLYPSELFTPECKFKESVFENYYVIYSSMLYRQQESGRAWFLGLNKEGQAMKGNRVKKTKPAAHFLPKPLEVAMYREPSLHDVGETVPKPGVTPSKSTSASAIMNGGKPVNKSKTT
T1 sequence (Q9UQD0 1763-1976 limits assumed): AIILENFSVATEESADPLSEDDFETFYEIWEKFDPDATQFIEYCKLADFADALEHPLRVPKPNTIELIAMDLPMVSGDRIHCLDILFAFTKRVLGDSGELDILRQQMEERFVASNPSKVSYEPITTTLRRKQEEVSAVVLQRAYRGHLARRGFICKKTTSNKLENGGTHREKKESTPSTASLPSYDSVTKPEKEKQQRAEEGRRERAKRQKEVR
Sequence of full-length P. pyralis luciferase (P08659 whole entry N50D/N119G/S548I/K549A/L550V, looked up): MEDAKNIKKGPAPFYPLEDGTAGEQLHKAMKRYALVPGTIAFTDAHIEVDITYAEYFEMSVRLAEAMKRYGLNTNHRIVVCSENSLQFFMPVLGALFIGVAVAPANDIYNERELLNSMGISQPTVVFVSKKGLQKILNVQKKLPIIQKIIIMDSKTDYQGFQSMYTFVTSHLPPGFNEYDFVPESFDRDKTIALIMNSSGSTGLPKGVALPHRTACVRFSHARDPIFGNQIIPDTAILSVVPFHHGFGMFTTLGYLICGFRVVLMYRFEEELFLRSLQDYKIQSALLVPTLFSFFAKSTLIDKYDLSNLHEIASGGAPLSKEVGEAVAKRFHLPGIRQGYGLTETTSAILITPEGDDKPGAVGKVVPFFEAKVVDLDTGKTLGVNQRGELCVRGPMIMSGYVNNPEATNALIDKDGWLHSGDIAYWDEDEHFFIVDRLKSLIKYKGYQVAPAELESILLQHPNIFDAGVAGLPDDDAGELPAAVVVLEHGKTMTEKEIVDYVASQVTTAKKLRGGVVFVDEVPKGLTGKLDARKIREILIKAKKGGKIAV

Structure (SMILES) | Split Luciferase Assay % Lum Set 1 [1, 3] | Split Luciferase Assay %Lum Set 2 [1, 4] | Split Luciferase Assay Z-score Set 1 [1, 5] | Split Luciferase Assay Z-score Set 2 [1, 6] | Split Luciferase Assay %Lum Avg ([1]; CC_NCI screening) | Luciferase Assay % Lum [2, 7] | Luciferase Assay Z-score [2, 8] | Toxicity Assay % Fluor (Clone V cells; human, 16 h, 30 µM) | Toxicity Assay Z-score (Clone V cells; human, 16 h, 30 µM) | Split Luciferase Assay Z-score Set 1 [1, 9] | Split Luciferase Assay % Lum Set 1 [1, 10] | Split Luciferase Assay Z-score Set 2 [1, 11] | Split Luciferase Assay %Lum Set 2 [1, 12] | Split Luciferase Assay %Lum Avg [1] | Luciferase Assay Z-score (full-length luciferase counter-screen) [2, 13] | Toxicity Assay % Fluor (CTB cell viability fluorescence) (Clone V cells) | Toxicity Assay Z-score (CTB cell viability) (Clone V cells) | further results
NC1(c2ccc(-c3nc4ccn5c(=O)[nH]nc5c4cc3-c3ccccc3)cc2)CCC1 [MK-2206] | 48.16% | 47.85% | -4.19 | -4.24 | 48.01% | 85.95% | -1.80 | 95.56% | -0.62 | – | – | – | – | – | – | – | – | –
Nc1ccccc1NC(=O)c1ccc(CNC(=O)OCc2cccnc2)cc1 [MS-275] | – | – | – | – | – | – | – | – | – | -2.96 | 63.38% | -2.38 | 70.74% | 67.06% | 0.92 | 101.17% | 0.16 | Luciferase Assay % Lum (full-length luciferase counter-screen) [2, 13]: 107.21%
Cl.N[C@@H](Cc1ccc(N(CCCl)CCCl)cc1)C(=O)O [Melphalan hydrochloride] | – | – | – | – | – | – | – | – | – | -1.64 | 79.68% | -0.10 | 98.83% | 89.26% | -1.86 | 107.21% | 1.01 | Luciferase Assay % Lum (full-length luciferase counter-screen) [2, 13]: 85.47%
O=C1c2c(O)ccc(O)c2C(=O)c2c(NCCNCCO)ccc(NCCNCCO)c21 [Mitoxantrone] | 5.76% | 15.60% | -7.62 | -6.87 | 10.68% | 40.29% | -7.65 | 90.67% | -1.30 | – | – | – | – | – | – | – | – | –
Cc1cn(-c2cc(NC(=O)c3ccc(C)c(Nc4nccc(-c5cccnc5)n4)c3)cc(C(F)(F)F)c2)cn1 [NILOTINIB] | 109.04% | 122.76% | 0.73 | 1.85 | 115.90% | 102.54% | 0.33 | – | – | – | – | – | – | – | – | – | – | Toxicity Assay % Fluor (Clone V cells): 88.70%; Toxicity Assay Z-score (Clone V cells): -1.58
CCN(CC)CCCC(C)Nc1nc(C)cc(Nc2ccc3nc(C)cc(N)c3c2)n1 (centres unmarked) [NSC23766] | – | – | – | – | – | – | – | – | – | 0.12 | 101.43% | -0.01 | 99.87% | 100.65% | 0.79 | 111.37% | 1.59 | –
COc1ccc(OC)c2c(=S)c3ccccc3[nH]c12 [NSC 625987] | – | – | – | – | – | – | – | – | – | -1.20 | 85.12% | -1.20 | 85.31% | 85.21% | -2.77 | 109.17% | 1.28 | Luciferase Assay % Lum (full-length luciferase counter-screen) [2, 13]: 78.37%
CCNC(=O)c1noc(-c2cc(C(C)C)c(O)cc2O)c1-c1ccc(CN2CCOCC2)cc1 [NVP AUY922] | 40.55% | 50.98% | -4.80 | -3.99 | 45.76% | 86.39% | -1.74 | 88.69% | -1.58 | – | – | – | – | – | – | – | – | –
O=C(/C=C/c1ccc(CN(CCO)CCc2c[nH]c3ccccc23)cc1)NO [NVP LAQ824] | 93.82% | 83.22% | -0.50 | -1.36 | 88.52% | 95.25% | -0.61 | 98.78% | -0.17 | – | – | – | – | – | – | – | – | –
COc1cc(N2CCC(N3CCN(C)CC3)CC2)ccc1Nc1ncc(Cl)c(Nc2ccccc2S(=O)(=O)C(C)C)n1 [NVP TAE684] | – | – | – | – | – | – | – | – | – | -7.35 | 9.02% | -7.71 | 5.20% | 7.11% | -0.46 | 37.86% | -8.69 | Luciferase Assay % Lum (full-length luciferase counter-screen) [2, 13]: 96.39%
COc1nc(N)nc2c1ncn2[C@@H]1O[C@H](CO)[C@@H](O)[C@@H]1O [Nelarabine] | 129.69% | 114.43% | 2.40 | 1.17 | 122.06% | – | – | 90.75% | -1.29 | – | – | – | – | – | – | – | – | Luciferase Assay % Lum [2]: 93.91%; Luciferase Assay Z-score [2]: -0.78
Cc1cn(-c2cc(NC(=O)c3ccc(C)c(Nc4nccc(-c5cccnc5)n4)c3)cc(C(F)(F)F)c2)cn1 [Nilotinib] | 126.43% | 113.39% | 2.14 | 1.09 | 119.91% | 94.65% | -0.68 | 85.20% | -2.07 | – | – | – | – | – | – | – | – | –
O=C(O)C(=O)O.[NH-][C@@H]1CCCC[C@H]1[NH-].[Pt+2] [Oxaliplatin] | 115.56% | 119.64% | 1.26 | 1.60 | 117.60% | 102.65% | 0.34 | – | – | – | – | – | – | – | – | – | – | Toxicity Assay % Fluor (Clone V cells): 90.53%; Toxicity Assay Z-score (Clone V cells): -1.32
CN(C)Cc1c(C(=O)NCCOc2ccc(C(=O)NO)cc2)oc2ccccc12 [PCI-24781] | 118.82% | 98.83% | 1.52 | -0.10 | 108.83% | 91.15% | -1.13 | 93.46% | -0.91 | – | – | – | – | – | – | – | – | –
COc1cccc(-c2cc(=O)c3ccccc3o2)c1N [PD 98059] | 103.60% | 106.11% | 0.29 | 0.50 | 104.86% | 90.17% | -1.26 | – | – | – | – | – | – | – | – | – | – | Toxicity Assay % Fluor (Clone V cells): 88.34%; Toxicity Assay Z-score (Clone V cells): -1.63
COc1cc2ncnc(Nc3cccc(Br)c3)c2cc1OC [PD 153035] | 143.82% | 121.72% | – | – | 132.77% | – | – | 98.57% | -0.20 | – | – | – | – | – | – | – | – | Split Luciferase Assay Z-score Set 1 [1]: 3.54; Split Luciferase Assay Z-score Set 2 [1]: 1.77; Luciferase Assay % Lum [2]: 83.75%; Luciferase Assay Z-score [2]: -2.08
CC(C)[C@H](NS(=O)(=O)c1ccc(-c2ccc(Br)cc2)cc1)C(=O)O [PD 166793] | – | – | – | – | – | – | – | – | – | 0.38 | 104.69% | -1.11 | 86.35% | 95.52% | 0.00 | 105.53% | 0.77 | Luciferase Assay % Lum (full-length luciferase counter-screen) [2, 13]: 99.99%
Cc1cc(Nc2ncc3cc(-c4c(Cl)cccc4Cl)c(=O)n(C)c3n2)ccc1F [PD 180970] | 120.99% | 116.51% | 1.70 | 1.34 | 118.75% | 100.96% | 0.12 | – | – | – | – | – | – | – | – | – | – | Toxicity Assay % Fluor (Clone V cells): 102.30%; Toxicity Assay Z-score (Clone V cells): 0.32
OCCn1cc(-c2cnc3nnn(Cc4ccc5ncccc5c4)c3n2)cn1 [PF-04217903] | 90.56% | 78.02% | -0.76 | -1.79 | 84.29% | 111.09% | 1.42 | – | – | – | – | – | – | – | – | – | – | Toxicity Assay % Fluor (Clone V cells): 99.86%; Toxicity Assay Z-score (Clone V cells): -0.02
